Assay results from ChEMBL document CHEMBL5215003, “Evaluating the in Vitro Efficacy of Quassinoids from Eurycoma longifolia and Eurycoma harmandiana against Common Cold Human Coronavirus OC43 and SARS-CoV-2 Using In-Cell Enzyme-Linked Immunosorbent Assay” (J Nat Prod, 2022).
Where “and” joins values, the source holds several entries; their conditions need not be identical. Equal values may be shown once.

test system: not listed separately; test: Antiviral activity against HCoV-OC43 infected in human HCT-8 cells assessed as inhibition of viral growth at 10 uM incubated for 4 days by ELISA analysis relative to control; format: functional, Human coronavirus OC43; set-up: scale not given: the % may be the effect or the level left; conditions: time 4 day

| Compound | Activity |
| --- | --- |
| O=C(O)CCc1nccc2c1[nH]c1cc(O)ccc12 | <20% |
| CC1=CC(=O)[C@@H](O)[C@]2(C)[C@H]3[C@]4(O)OC[C@@]35[C@@H](C[C@@H]12)OC(=O)[C@H](O)[C@@]5(O)[C@]1(CO1)[C@H]4O | 61.73% |
| O=c1ccc2nccc3c4ccccc4n1c23 [CANTHIN-6-ONE] | <20% |
| CC1=CC(=O)[C@@H](O)[C@]2(C)C3[C@@H](O)[C@@H]4OC(=O)[C@@H]([C@H]4C)[C@]3(C)C(=O)C[C@@H]12 (stereo partly specified) | 90.27% |
| COc1ccc2c3ccnc4ccc(=O)n(c2c1)c43 | <20% |
| CCC(CC)COC(=O)[C@H](C)N[P@](=O)(OC[C@H]1O[C@@](C#N)(c2ccc3c(N)ncnn23)[C@H](O)[C@@H]1O)Oc1ccccc1 [REMDESIVIR] | 92.45% |

test system: HCT-8; test: Cytotoxicity against human HCT-8 cells assessed as redcution in cell viability at 10 uM incubated for 96 hrs by PrestoBlue reagent based assay relative to control; format: toxicity; conditions: hct-8, 96 h

| Compound | Activity |
| --- | --- |
| O=C(O)CCc1nccc2c1[nH]c1cc(O)ccc12 | 108.23% |
| CC1=CC(=O)[C@@H](O)[C@]2(C)[C@H]3[C@]4(O)OC[C@@]35[C@@H](C[C@@H]12)OC(=O)[C@H](O)[C@@]5(O)[C@]1(CO1)[C@H]4O | 100.88% |
| O=c1ccc2nccc3c4ccccc4n1c23 [CANTHIN-6-ONE] | 55.55% |
| CC1=CC(=O)[C@@H](O)[C@]2(C)C3[C@@H](O)[C@@H]4OC(=O)[C@@H]([C@H]4C)[C@]3(C)C(=O)C[C@@H]12 (stereo partly specified) | 71.14% |
| COc1ccc2c3ccnc4ccc(=O)n(c2c1)c43 | 33.49% |
| CCC(CC)COC(=O)[C@H](C)N[P@](=O)(OC[C@H]1O[C@@](C#N)(c2ccc3c(N)ncnn23)[C@H](O)[C@@H]1O)Oc1ccccc1 [REMDESIVIR] | 96.21% |

test system: not listed separately; test: Antiviral activity against HCoV-OC43 infected in human HCT-8 cells assessed as inhibition of viral growth incubated for 4 days by ELISA analysis; format: functional, cell-based, Human coronavirus OC43; conditions: Betacoronavirus 1, HCT-8, 96 h

| Compound | IC50 |
| --- | --- |
| CC1=CC(=O)[C@@H](O)[C@]2(C)[C@H]3[C@]4(O)OC[C@@]35[C@@H](C[C@@H]12)OC(=O)[C@H](O)[C@@]5(O)[C@]1(CO1)[C@H]4O | 5.88 µM |
| CC1=CC(=O)[C@@H](O)[C@]2(C)C3[C@@H](O)[C@@H]4OC(=O)[C@@H]([C@H]4C)[C@]3(C)C(=O)C[C@@H]12 (stereo partly specified) | 0.37 µM |
| CCC(CC)COC(=O)[C@H](C)N[P@](=O)(OC[C@H]1O[C@@](C#N)(c2ccc3c(N)ncnn23)[C@H](O)[C@@H]1O)Oc1ccccc1 [REMDESIVIR] | 0.32 µM |

test system: not listed separately; test: Cytotoxicity against human HCT-8 cells assessed as redcution in cell viability incubated for 96 hrs by PrestoBlue reagent based assay; format: toxicity; conditions: not given

| Compound | CC50 at 96 h |
| --- | --- |
| O=C(O)CCc1nccc2c1[nH]c1cc(O)ccc12 | 50.1 µM |
| CC1=CC(=O)[C@@H](O)[C@]2(C)[C@H]3[C@]4(O)OC[C@@]35[C@@H](C[C@@H]12)OC(=O)[C@H](O)[C@@]5(O)[C@]1(CO1)[C@H]4O | > 100 µM |
| O=c1ccc2nccc3c4ccccc4n1c23 [CANTHIN-6-ONE] | 42.4 µM |
| CC1=CC(=O)[C@@H](O)[C@]2(C)C3[C@@H](O)[C@@H]4OC(=O)[C@@H]([C@H]4C)[C@]3(C)C(=O)C[C@@H]12 (stereo partly specified) | 58.9 µM |
| COc1ccc2c3ccnc4ccc(=O)n(c2c1)c43 | 21.1 µM |
| CCC(CC)COC(=O)[C@H](C)N[P@](=O)(OC[C@H]1O[C@@](C#N)(c2ccc3c(N)ncnn23)[C@H](O)[C@@H]1O)Oc1ccccc1 [REMDESIVIR] | 53.2 µM |

test system: not listed separately; test: Selectivity index, ratio of CC50 for cytotoxicity against human HCT-8 cells to IC50 for antiviral activity against HCoV-OC43 infected in human HCT-8 cells; format: toxicity, cell-based; conditions: read-out: Ratio CC50/IC50

| Compound | selectivity ratio |
| --- | --- |
| CC1=CC(=O)[C@@H](O)[C@]2(C)[C@H]3[C@]4(O)OC[C@@]35[C@@H](C[C@@H]12)OC(=O)[C@H](O)[C@@]5(O)[C@]1(CO1)[C@H]4O | > 17 |
| CC1=CC(=O)[C@@H](O)[C@]2(C)C3[C@@H](O)[C@@H]4OC(=O)[C@@H]([C@H]4C)[C@]3(C)C(=O)C[C@@H]12 (stereo partly specified) | 159 |
| CCC(CC)COC(=O)[C@H](C)N[P@](=O)(OC[C@H]1O[C@@](C#N)(c2ccc3c(N)ncnn23)[C@H](O)[C@@H]1O)Oc1ccccc1 [REMDESIVIR] | 166 |

test system: SARS-CoV-2; test: Antiviral activity against SARS-CoV-2 infected in African green monkey Vero cells assessed as inhibition of viral growth incubated for 2 days by ELISA analysis; format: functional, organism-based; conditions: Severe acute respiratory syndrome coronavirus 2, Vero, 48 h

| Compound | IC50 |
| --- | --- |
| CC1=CC(=O)[C@@H](O)[C@]2(C)[C@H]3[C@]4(O)OC[C@@]35[C@@H](C[C@@H]12)OC(=O)[C@H](O)[C@@]5(O)[C@]1(CO1)[C@H]4O | 9.39 µM and 3.98 µg/mL |
| CC1=CC(=O)[C@@H](O)[C@]2(C)C3[C@@H](O)[C@@H]4OC(=O)[C@@H]([C@H]4C)[C@]3(C)C(=O)C[C@@H]12 (stereo partly specified) | 510 nM and 0.18 µg/mL |
| CCC(CC)COC(=O)[C@H](C)N[P@](=O)(OC[C@H]1O[C@@](C#N)(c2ccc3c(N)ncnn23)[C@H](O)[C@@H]1O)Oc1ccccc1 [REMDESIVIR] | 22.5 µM |

test system: not listed separately; test: Cytotoxicity against African green monkey Vero cells assessed as reduction in cell viability incubated for 48 hrs by PrestoBlue reagent based assay; format: toxicity; conditions: chlorocebus sabaeus

| Compound | CC50 at 48 h |
| --- | --- |
| O=C(O)CCc1nccc2c1[nH]c1cc(O)ccc12 | > 100 µM |
| CC1=CC(=O)[C@@H](O)[C@]2(C)[C@H]3[C@]4(O)OC[C@@]35[C@@H](C[C@@H]12)OC(=O)[C@H](O)[C@@]5(O)[C@]1(CO1)[C@H]4O | > 100 µM |
| O=c1ccc2nccc3c4ccccc4n1c23 [CANTHIN-6-ONE] | > 100 µM |
| CC1=CC(=O)[C@@H](O)[C@]2(C)C3[C@@H](O)[C@@H]4OC(=O)[C@@H]([C@H]4C)[C@]3(C)C(=O)C[C@@H]12 (stereo partly specified) | 57.1 µM |
| COc1ccc2c3ccnc4ccc(=O)n(c2c1)c43 | > 100 µM |
| CCC(CC)COC(=O)[C@H](C)N[P@](=O)(OC[C@H]1O[C@@](C#N)(c2ccc3c(N)ncnn23)[C@H](O)[C@@H]1O)Oc1ccccc1 [REMDESIVIR] | > 100 µM |

test system: not listed separately; test: Selectivity index, ratio of CC50 for cytotoxicity against African green monkey Vero cells to IC50 for antiviral activity against SARS-CoV-2 infected in African green monkey Vero cells; format: toxicity, cell-based; conditions: read-out: Ratio CC50/IC50

| Compound | selectivity ratio |
| --- | --- |
| CC1=CC(=O)[C@@H](O)[C@]2(C)[C@H]3[C@]4(O)OC[C@@]35[C@@H](C[C@@H]12)OC(=O)[C@H](O)[C@@]5(O)[C@]1(CO1)[C@H]4O | > 10.7 |
| CC1=CC(=O)[C@@H](O)[C@]2(C)C3[C@@H](O)[C@@H]4OC(=O)[C@@H]([C@H]4C)[C@]3(C)C(=O)C[C@@H]12 (stereo partly specified) | 112 |
| CCC(CC)COC(=O)[C@H](C)N[P@](=O)(OC[C@H]1O[C@@](C#N)(c2ccc3c(N)ncnn23)[C@H](O)[C@@H]1O)Oc1ccccc1 [REMDESIVIR] | > 4.44 |

test system: not listed separately; test: Cytotoxicity against human Calu-3 cells assessed as reduction in cell viability incubated for 48 hrs by PrestoBlue reagent based assay; format: toxicity; conditions: not given

| Compound | CC50 at 48 h |
| --- | --- |
| O=C(O)CCc1nccc2c1[nH]c1cc(O)ccc12 | > 100 µM |
| CC1=CC(=O)[C@@H](O)[C@]2(C)[C@H]3[C@]4(O)OC[C@@]35[C@@H](C[C@@H]12)OC(=O)[C@H](O)[C@@]5(O)[C@]1(CO1)[C@H]4O | > 100 µM |
| O=c1ccc2nccc3c4ccccc4n1c23 [CANTHIN-6-ONE] | > 100 µM |
| CC1=CC(=O)[C@@H](O)[C@]2(C)C3[C@@H](O)[C@@H]4OC(=O)[C@@H]([C@H]4C)[C@]3(C)C(=O)C[C@@H]12 (stereo partly specified) | 41.9 µM |
| COc1ccc2c3ccnc4ccc(=O)n(c2c1)c43 | > 100 µM |
| CCC(CC)COC(=O)[C@H](C)N[P@](=O)(OC[C@H]1O[C@@](C#N)(c2ccc3c(N)ncnn23)[C@H](O)[C@@H]1O)Oc1ccccc1 [REMDESIVIR] | > 100 µM |

test system: not listed separately; test: Cytotoxicity against human MRC5 cells assessed as reduction in cell viability incubated for 48 hrs by PrestoBlue reagent based assay; format: toxicity; conditions: not given

| Compound | CC50 at 48 h |
| --- | --- |
| O=C(O)CCc1nccc2c1[nH]c1cc(O)ccc12 | > 100 µM |
| CC1=CC(=O)[C@@H](O)[C@]2(C)[C@H]3[C@]4(O)OC[C@@]35[C@@H](C[C@@H]12)OC(=O)[C@H](O)[C@@]5(O)[C@]1(CO1)[C@H]4O | > 100 µM |
| O=c1ccc2nccc3c4ccccc4n1c23 [CANTHIN-6-ONE] | 91.2 µM |
| CC1=CC(=O)[C@@H](O)[C@]2(C)C3[C@@H](O)[C@@H]4OC(=O)[C@@H]([C@H]4C)[C@]3(C)C(=O)C[C@@H]12 (stereo partly specified) | 31.2 µM |
| COc1ccc2c3ccnc4ccc(=O)n(c2c1)c43 | > 100 µM |
| CCC(CC)COC(=O)[C@H](C)N[P@](=O)(OC[C@H]1O[C@@](C#N)(c2ccc3c(N)ncnn23)[C@H](O)[C@@H]1O)Oc1ccccc1 [REMDESIVIR] | > 100 µM |

test system: not listed separately; test: Cytotoxicity against human HepG2 cells assessed as reduction in cell viability incubated for 48 hrs by PrestoBlue reagent based assay; format: toxicity; conditions: not given

| Compound | CC50 at 48 h |
| --- | --- |
| O=C(O)CCc1nccc2c1[nH]c1cc(O)ccc12 | > 100 µM |
| CC1=CC(=O)[C@@H](O)[C@]2(C)[C@H]3[C@]4(O)OC[C@@]35[C@@H](C[C@@H]12)OC(=O)[C@H](O)[C@@]5(O)[C@]1(CO1)[C@H]4O | > 100 µM |
| O=c1ccc2nccc3c4ccccc4n1c23 [CANTHIN-6-ONE] | 85.7 µM |
| CC1=CC(=O)[C@@H](O)[C@]2(C)C3[C@@H](O)[C@@H]4OC(=O)[C@@H]([C@H]4C)[C@]3(C)C(=O)C[C@@H]12 (stereo partly specified) | > 100 µM |
| COc1ccc2c3ccnc4ccc(=O)n(c2c1)c43 | > 100 µM |
| CCC(CC)COC(=O)[C@H](C)N[P@](=O)(OC[C@H]1O[C@@](C#N)(c2ccc3c(N)ncnn23)[C@H](O)[C@@H]1O)Oc1ccccc1 [REMDESIVIR] | 52.6 µM |

test system: SARS-CoV-2; test: microbe, parasite or virus in culture; format: functional, organism-based, Vero E6; conditions: Severe acute respiratory syndrome coronavirus 2, Vero C1008

| Compound | IC50 |
| --- | --- |
| COC(=O)[C@@]12OC[C@]34[C@H]([C@@H](O)[C@@H]1O)[C@@]1(C)CC(=O)C(O)=C(C)[C@@H]1C[C@H]3OC(=O)[C@H](OC(=O)CC(C)C)[C@@H]24 [BRUCEINE A] | 0.011 µM |
| COC(=O)[C@@]12OC[C@]34[C@H]([C@@H](O)[C@@H]1O)[C@@]1(C)CC(=O)C(O)=C(C)[C@@H]1C[C@H]3OC(=O)[C@H](OC(=O)C=C(C)C)[C@@H]24 | 0.049 µM |
